Laboratory results as given in US20250325690A1, “ANTIBODY-DRUG CONJUGATE WITH TWO TYPES OF DRUG-LINKER CONJUGATES ON SINGLE ANTIBODY” (priority 2022, published 2025).
“Also recorded” adds a separate entry of the source. Like-named read-outs stand apart in the source and are kept apart here.

Assays:
DDX5 = molecular target: T1, DDX5 (Homo sapiens, UniProt P17844); type: cell-based; settings: FaDu and A549, 0, 10, 100 nM, 24 hours
T1 construct: endogenous in cells; host or cells: FaDu and A549 cell lines
T1 sequence (P17844 whole entry): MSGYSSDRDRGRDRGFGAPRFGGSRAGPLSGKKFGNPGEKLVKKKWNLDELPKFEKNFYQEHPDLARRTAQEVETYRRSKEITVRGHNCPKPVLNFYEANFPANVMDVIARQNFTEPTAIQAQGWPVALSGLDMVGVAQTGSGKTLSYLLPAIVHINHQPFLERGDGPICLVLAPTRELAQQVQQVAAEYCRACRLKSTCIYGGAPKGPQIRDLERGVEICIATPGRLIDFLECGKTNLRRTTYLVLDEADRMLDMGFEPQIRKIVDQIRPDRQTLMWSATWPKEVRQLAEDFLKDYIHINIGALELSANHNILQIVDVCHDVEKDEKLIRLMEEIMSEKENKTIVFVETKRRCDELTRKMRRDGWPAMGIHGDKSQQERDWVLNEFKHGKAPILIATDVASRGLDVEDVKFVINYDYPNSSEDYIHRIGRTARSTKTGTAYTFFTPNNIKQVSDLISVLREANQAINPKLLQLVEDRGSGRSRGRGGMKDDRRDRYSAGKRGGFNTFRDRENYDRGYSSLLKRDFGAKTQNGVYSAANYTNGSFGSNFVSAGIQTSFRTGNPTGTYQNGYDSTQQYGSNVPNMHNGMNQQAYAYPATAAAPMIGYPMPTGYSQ

[1] = human, in vivo; cited from earlier work
[2] = system: survivin, cIAP2, Mcl-1, XIAP; assay: Western blotting of anti-apoptotic protein expression; settings: HCT-8 and FaDu cell lines; FIG. 17
ABCG2 transporter = molecular target: T2, ABCG2 transporter (Homo sapiens, UniProt Q9UNQ0); assay: Effect of ABCG2 transporter on drug; type: cell-based
T2 sequence (Q9UNQ0 1-655): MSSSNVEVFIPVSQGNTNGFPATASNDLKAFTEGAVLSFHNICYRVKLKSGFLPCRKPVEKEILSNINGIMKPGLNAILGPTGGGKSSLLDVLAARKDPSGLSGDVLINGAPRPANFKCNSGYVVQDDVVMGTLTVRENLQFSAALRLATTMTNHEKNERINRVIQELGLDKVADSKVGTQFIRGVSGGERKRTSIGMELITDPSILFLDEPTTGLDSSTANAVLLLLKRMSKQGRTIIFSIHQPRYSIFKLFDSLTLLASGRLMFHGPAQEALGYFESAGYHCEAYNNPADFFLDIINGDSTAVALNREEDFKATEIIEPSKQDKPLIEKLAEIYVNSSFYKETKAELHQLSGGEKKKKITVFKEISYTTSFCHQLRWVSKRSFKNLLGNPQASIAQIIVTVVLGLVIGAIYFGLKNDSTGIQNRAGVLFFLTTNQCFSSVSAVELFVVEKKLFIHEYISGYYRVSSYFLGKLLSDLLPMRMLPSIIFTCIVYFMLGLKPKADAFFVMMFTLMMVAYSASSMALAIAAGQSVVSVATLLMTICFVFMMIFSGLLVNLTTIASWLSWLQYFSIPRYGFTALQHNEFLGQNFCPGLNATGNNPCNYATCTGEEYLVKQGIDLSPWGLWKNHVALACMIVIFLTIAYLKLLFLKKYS

GLP-toxicity tests = type: in vivo; settings: mice and beagle dogs
[3] = system: cancer cell line xenograft models; assay: Cancer cell line xenograft models, FL118 versus SN-38; type: in vivo; settings: same amount as SN-38
cancer cells [4] = assay: Cytotoxicity in cancer cell lines; type: cell-based; settings: 140 cell lines from various cancer types, most cancer cells
DNA topoisomerase-1 = molecular target: T3, DNA topoisomerase-1 (Homo sapiens, UniProt P11387); settings: cited from earlier work
T3 sequence (P11387 1-765): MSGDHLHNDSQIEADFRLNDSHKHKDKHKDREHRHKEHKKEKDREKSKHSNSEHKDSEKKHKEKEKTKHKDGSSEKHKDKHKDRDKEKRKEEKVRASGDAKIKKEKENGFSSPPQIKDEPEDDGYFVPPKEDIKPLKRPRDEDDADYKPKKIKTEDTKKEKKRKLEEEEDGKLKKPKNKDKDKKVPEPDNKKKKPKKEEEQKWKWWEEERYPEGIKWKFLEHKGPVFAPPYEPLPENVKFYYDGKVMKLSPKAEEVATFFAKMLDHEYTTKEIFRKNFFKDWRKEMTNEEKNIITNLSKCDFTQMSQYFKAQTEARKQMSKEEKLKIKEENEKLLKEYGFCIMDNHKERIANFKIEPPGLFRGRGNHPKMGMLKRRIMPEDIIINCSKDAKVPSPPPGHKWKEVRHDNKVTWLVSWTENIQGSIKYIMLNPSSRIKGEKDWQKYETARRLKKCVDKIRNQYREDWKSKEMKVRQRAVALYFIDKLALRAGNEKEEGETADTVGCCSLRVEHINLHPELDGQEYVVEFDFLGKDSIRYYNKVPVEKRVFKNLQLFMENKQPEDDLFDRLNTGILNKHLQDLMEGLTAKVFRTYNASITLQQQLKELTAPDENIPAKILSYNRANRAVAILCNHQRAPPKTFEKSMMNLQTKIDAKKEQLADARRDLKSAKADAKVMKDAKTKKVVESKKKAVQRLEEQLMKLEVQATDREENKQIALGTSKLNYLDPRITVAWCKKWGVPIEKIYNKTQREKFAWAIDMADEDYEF

cancer cells [5] = settings: cited from earlier work
[6] = system: FaDu cell line not expressing ABCG2; assay: In vitro cell viability test, FaDu; settings: FIG. 28, 3 days

CC[C@@]1(O)C(=O)OCc2c1cc1n(c2=O)Cc2c-1nc1cc3c(c4c1c2[C@@H](NC(=O)CO)CC4)OCO3 [PBX-7014]
DDX5 degradation (DDX5): degrading DDX5 | DDX5 degradation (DDX5; listed as 7014): followed by 7011, 7016, and 7014 in this order

Trodelvy
diarrhea of all grades [1]: 65% | febrile neutropenia, patients [1]: 7% | neutropenia grade 3 or higher [1]: 47% | neutropenia of all grades [1]: 61% | neutropenic colitis, patients [1]: 0.5%

CC[C@@]1(O)C(=O)OCc2c1cc1n(c2=O)Cc2c-1nc1cc3c(c4c1c2[C@@H](NC(=O)[C@@H](C)O)CC4)OCO3 [PBX-7016]
DDX5 degradation (DDX5): degrading DDX5; also recorded: inhibits DDX5 in a concentration-dependent manner; also recorded: works better than PBX-7014 | DDX5 degradation (DDX5; listed as 7016): followed by 7011, 7016, and 7014 in this order

CC[C@@]1(O)C(=O)OCc2c1cc1n(c2=O)Cc2c-1nc1cc(F)c(C)c3c1c2[C@@H](N)CC3 [exatecan]
DDX5 degradation (DDX5): exhibits a MoA that degrades the DDX5 protein | downregulating a tumor protein compared to SN-38 [2]: better effect in downregulating a tumor protein

CC[C@@]1(O)C(=O)OCc2c1cc1n(c2=O)Cc2cc3cc4c(cc3nc2-1)OCO4 [FL118]
effect of ABCG2 transporter (ABCG2 transporter): not affected by the ABCG2 transporter | safety (GLP-toxicity tests): excellent safety | DDX5 degradation (DDX5): superior to other substances | downregulating a tumor protein compared to SN-38 [2]: better effect in downregulating a tumor protein | efficacy compared to SN-38 [3]: superior efficiency compared to SN-38; also recorded: strong tumor regression efficacy compared to SN-38 | IC50 (cancer cells [4]): < 100 nM

CC[C@@]1(O)C(=O)OCc2c1cc1n(c2=O)Cc2c-1nc1cc(F)c(C)c3c1c2[C@@H](NC(=O)CO)CC3 [Dxd]
DDX5 degradation (DDX5): exhibits a MoA that degrades the DDX5 protein | IC50 (DNA topoisomerase-1): 310 nM | cytotoxicity / activity in cancer cells relative to SN-38 (cancer cells [5]): about 10 times

CC[C@@]1(O)C(=O)OCc2c1cc1n(c2=O)Cc2c-1nc1cc3c(c4c1c2[C@@H](NC(=O)[C@@H](O)C1CC1)CC4)OCO3 [PBX-7024]
apoptotic efficacy [6]: potent apoptotic efficacy

CC[C@@]1(O)C(=O)OCc2c1cc1n(c2=O)Cc2c-1nc1cc3c(c4c1c2[C@@H](N)CC4)OCO3 (single isomer, unassigned) [PBX-7011]
DDX5 degradation (DDX5): degrading DDX5 | DDX5 degradation (DDX5; listed as 7011): followed by 7011, 7016, and 7014 in this order
